Measured values from PMC7914897, “Cytotoxic Potential of a-Azepano- and 3-Amino-3,4-SeCo-Triterpenoids” (International Journal of Molecular Sciences, 2021).
Read-outs that look alike come from different tables or passages of the source.

Key:
[1] = system: NCI-H23 (NSC lung cancer); test: NCI-60 screen (SRB, 48 h); conditions: Homo sapiens
M14 (Melanoma) = test: NCI-60 screen (SRB, 48 h); conditions: Homo sapiens
SF-539 (CNS cancer) = test: NCI-60 screen (SRB, 48 h); conditions: Homo sapiens
HS 578T (Breast cancer) = test: NCI-60 screen (SRB, 48 h); conditions: Homo sapiens
MALME-3M (Melanoma) = test: NCI-60 screen (SRB, 48 h); conditions: Homo sapiens
SN12C (Renal cancer) = test: NCI-60 screen (SRB, 48 h); conditions: Homo sapiens
SK-MEL-2 (Melanoma) = test: NCI-60 screen (SRB, 48 h); conditions: Homo sapiens
HCT-15 (Colon cancer) = test: NCI-60 screen (SRB, 48 h); conditions: Homo sapiens
OVCAR-4 (Ovarian cancer) = test: NCI-60 screen (SRB, 48 h); assay type: cell-based; conditions: Homo sapiens
[2] = system: NCI/ADR-RES (Ovarian cancer); test: NCI-60 screen (SRB, 48 h); conditions: Homo sapiens
HOP-92 (NSC lung cancer) = test: NCI-60 screen (SRB, 48 h); conditions: Homo sapiens
MDA-MB-435 (Melanoma) = test: NCI-60 screen (SRB, 48 h); assay type: cell-based; conditions: Homo sapiens
RPMI-8226 (Leukemia) = test: NCI-60 screen (SRB, 48 h); conditions: Homo sapiens
UACC-257 (Melanoma) = test: NCI-60 screen (SRB, 48 h); conditions: Homo sapiens
LOX IMVI (Melanoma) = test: NCI-60 screen (SRB, 48 h); assay type: cell-based; conditions: Homo sapiens
HCC-2998 (Colon cancer) = test: NCI-60 screen (SRB, 48 h); conditions: Homo sapiens
Leukemia subpanel = test: cells; conditions: Homo sapiens
OVCAR-5 (Ovarian cancer) = test: NCI-60 screen (SRB, 48 h); conditions: Homo sapiens
U251 (CNS cancer) = test: NCI-60 screen (SRB, 48 h); conditions: Homo sapiens
[3] = system: panel of approximately 60 cancer cell lines; test: NCI-60 screen (SRB, 48 h), full panel
K-562 (Leukemia) = test: NCI-60 screen (SRB, 48 h); conditions: Homo sapiens
[4] = system: NCI-H226 (NSC lung cancer); test: NCI-60 screen (SRB, 48 h); conditions: Homo sapiens
CNS cancer subpanel = test: NCI-60 screen, subpanel; conditions: Homo sapiens
SK-OV-3 (Ovarian cancer) = test: NCI-60 screen (SRB, 48 h); conditions: Homo sapiens
SK-MEL-28 (Melanoma) = test: NCI-60 screen (SRB, 48 h); conditions: Homo sapiens
[5] = system: MDA-MB-31/ATCC (Breast cancer); test: NCI-60 screen (SRB, 48 h); conditions: Homo sapiens
OVCAR-8 (Ovarian cancer) = test: NCI-60 screen (SRB, 48 h); conditions: Homo sapiens, OVCAR-8

Q: How did the GI50 ([1]; NCI-H23) turn out when `Cc1ccc(S(=O)(=O)OC[C@]23CCC(C)(C)C[C@H]2C2=CC[C@@H]4[C@@]5(C)CCCNC(C)(C)[C@@H]5CC[C@@]4(C)[C@]2(C)CC3)cc1` [Compound 15] was run?
A: The GI50 was 1700 nM.

Q: What about the IC (TGI) ([1]; NCI-H23, 48 h, read-out: TGI) of the same molecule?
A: Its IC (TGI) is 3270 nM.

Q: What about the GI50 (M14 (Melanoma); M14) of the same molecule?
A: The GI50 was 1870 nM.

Q: And the IC (TGI) (M14 (Melanoma); M14, 48 h, read-out: TGI)?
A: Its IC (TGI) is 3580 nM.

Q: What about the GI50 (SF-539 (CNS cancer); SF-539) of the same molecule?
A: Its GI50 is 1710 nM.

Q: What about the IC (TGI) (SF-539 (CNS cancer); SF-539, 48 h, read-out: TGI) of the same molecule?
A: Its IC (TGI) is 3150 nM.

Q: And the CC50 (SF-539 (CNS cancer); SF-539, read-out: LC50)?
A: Its CC50 is 5790 nM.

Q: What about the GI50 (HS 578T (Breast cancer)) of the same molecule?
A: Its GI50 is 1820 nM.

Q: What about the IC (TGI) (HS 578T (Breast cancer); 48 h, read-out: TGI) of the same molecule?
A: Its IC (TGI) is 4080 nM.

Q: What about the CC50 (HS 578T (Breast cancer); read-out: LC50) of the same molecule?
A: The CC50 was 9140 nM.

Q: What about the GI50 (MALME-3M (Melanoma)) of the same molecule?
A: The GI50 was 1770 nM.

Q: And the IC (TGI) (MALME-3M (Melanoma); 48 h, read-out: TGI)?
A: The IC (TGI) was 3560 nM.

Q: And the GI50 (SN12C (Renal cancer))?
A: The GI50 was 1670 nM.

Q: What about the IC (TGI) (SN12C (Renal cancer); 48 h, read-out: TGI) of the same molecule?
A: The IC (TGI) was 3300 nM.

Q: What about the GI50 (SK-MEL-2 (Melanoma); SK-MEL-2) of the same molecule?
A: The GI50 was 2190 nM.

Q: What about the IC (TGI) (SK-MEL-2 (Melanoma); SK-MEL-2, 48 h, read-out: TGI) of the same molecule?
A: The IC (TGI) was 4830 nM.

Q: And the CC50 (SK-MEL-2 (Melanoma); SK-MEL-2, read-out: LC50)?
A: The CC50 was 16400 nM.

Q: What about the GI50 (HCT-15 (Colon cancer); HCT-15) of the same molecule?
A: Its GI50 is 1650 nM.

Q: What about the IC (TGI) (HCT-15 (Colon cancer); HCT-15, 48 h, read-out: TGI) of the same molecule?
A: Its IC (TGI) is 3200 nM.

Q: And the IC (TGI) (OVCAR-4 (Ovarian cancer); OVCAR-4, 48 h)?
A: The IC (TGI) was 3320 nM.

Q: What about the GI50 (OVCAR-4 (Ovarian cancer); OVCAR-4, read-out: GI50) of the same molecule?
A: The GI50 was 1690 nM.

Q: And the GI50 [2]?
A: The GI50 was 1890 nM.

Q: What about the IC (TGI) ([2]; 48 h, read-out: TGI) of the same molecule?
A: The IC (TGI) was 3930 nM.

Q: What about the GI50 (HOP-92 (NSC lung cancer); HOP-92) of the same molecule?
A: The GI50 was 1350 nM.

Q: And the IC (TGI) (HOP-92 (NSC lung cancer); HOP-92, 48 h, read-out: TGI)?
A: Its IC (TGI) is 2800 nM.

Q: And the GI50 (MDA-MB-435 (Melanoma); MDA-MB-435)?
A: The GI50 was 1610 nM.

Q: What about the IC (TGI) (MDA-MB-435 (Melanoma); MDA-MB-435, 48 h, read-out: TGI) of the same molecule?
A: Its IC (TGI) is 2970 nM.

Q: What about the GI50 (RPMI-8226 (Leukemia); RPMI-8226) of the same molecule?
A: Its GI50 is 2030 nM.

Q: And the IC (TGI) (RPMI-8226 (Leukemia); RPMI-8226, 48 h, read-out: TGI)?
A: Its IC (TGI) is 4420 nM.

Q: And the GI50 (UACC-257 (Melanoma); UACC-257)?
A: The GI50 was 1850 nM.

Q: And the IC (TGI) (UACC-257 (Melanoma); UACC-257, 48 h, read-out: TGI)?
A: Its IC (TGI) is 3540 nM.

Q: What about the IC (TGI) (LOX IMVI (Melanoma); 48 h) of the same molecule?
A: The IC (TGI) was 3000 nM.

Q: What about the activity at 10 µM (LOX IMVI (Melanoma); 48 h, 1 dose 10 µM, read-out: Growth % of the Most Sensitive Cell Lines) of the same molecule?
A: The activity at 10 µM was -87.7%.

Q: And the GI50 (LOX IMVI (Melanoma); read-out: GI50)?
A: The GI50 was 1600 nM.

Q: And the GI50 (HCC-2998 (Colon cancer); HCC 2998)?
A: The GI50 was 1630 nM.

Q: And the IC (TGI) (HCC-2998 (Colon cancer); HCC 2998, 48 h, read-out: TGI)?
A: Its IC (TGI) is 3210 nM.

Q: And the IC (TGI) (Leukemia subpanel; 48 h, read-out: TGI MG_MID)?
A: The IC (TGI) was 4240 nM.

Q: And the GI50 (Leukemia subpanel; read-out: GI50 MG_MID)?
A: Its GI50 is 1570 nM.

Q: And the CC50 (Leukemia subpanel; read-out: LC50 MG_MID)?
A: Its CC50 is over 100000 nM.

Q: And the GI50 (OVCAR-5 (Ovarian cancer); OVCAR-5)?
A: Its GI50 is 1610 nM.

Q: What about the IC (TGI) (OVCAR-5 (Ovarian cancer); OVCAR-5, 48 h, read-out: TGI) of the same molecule?
A: The IC (TGI) was 3010 nM.

Q: And the GI50 (U251 (CNS cancer); U-251)?
A: Its GI50 is 1740 nM.

Q: What about the IC (TGI) (U251 (CNS cancer); U-251, 48 h, read-out: TGI) of the same molecule?
A: The IC (TGI) was 3290 nM.

Q: And the “Positive Cytostatic Effect (cell lines with percent growth 0 to 50 / total)” value ([3]; 1 dose 10 µM)?
A: Its value is 17/60.

Q: What about the “Positive Cytotoxic Effect (cell lines with percent growth < 0 / total)” value ([3]; 1 dose 10 µM) of the same molecule?
A: The value was 14/60.

Q: And the “number of cancer cell lines the compound was active against” value ([3]; 1 dose 10 µM)?
A: The value was 22 cell lines.

Q: What about the activity at 10 µM ([3]; Homo sapiens, 48 h, read-out: Mean Growth, %) of the same molecule?
A: Its activity at 10 µM is 37.2%.

Q: What about the activity at 10 µM ([3]; Homo sapiens, 48 h, read-out: Range of Growth, %) of the same molecule?
A: The activity at 10 µM was -87.7 to 104%.

Q: What about the IC (TGI) ([3]; Homo sapiens, 48 h, read-out: TGI MG_MID60, average over all cell lines) of the same molecule?
A: The IC (TGI) was 3800 nM.

Q: And the GI50 ([3]; Homo sapiens, read-out: GI50 MG_MID60)?
A: Its GI50 is 1990 nM.

Q: What about the GI50 ([3]; Homo sapiens, read-out: GI50 against all human tumor cell lines) of the same molecule?
A: The GI50 was under 15000 nM.

Q: What about the GI50 ([3]; Homo sapiens, read-out: GI50 against the most sensitive cell lines) of the same molecule?
A: Its GI50 is 200 to 940 nM.

Q: What about the CC50 ([3]; Homo sapiens, read-out: LC50 MG_MID60, average over all cell lines) of the same molecule?
A: Its CC50 is 18900 nM.

Q: And the GI50 (K-562 (Leukemia); K562)?
A: Its GI50 is 1750 nM.

Q: What about the CC50 (K-562 (Leukemia); K562, read-out: LC50) of the same molecule?
A: Its CC50 is over 100000 nM.

Q: What about the GI50 ([4]; NCI-H226) of the same molecule?
A: Its GI50 is 1710 nM.

Q: And the IC (TGI) ([4]; NCI-H226, 48 h, read-out: TGI)?
A: Its IC (TGI) is 3770 nM.

Q: What about the IC (TGI) (CNS cancer subpanel; 48 h, read-out: TGI MG_MID) of the same molecule?
A: Its IC (TGI) is 4110 nM.

Q: And the GI50 (CNS cancer subpanel; read-out: GI50 MG_MID)?
A: The GI50 was 1780 nM.

Q: What about the CC50 (CNS cancer subpanel; read-out: LC50 MG_MID) of the same molecule?
A: The CC50 was 26500 nM.

Q: And the GI50 (SK-OV-3 (Ovarian cancer); SK-OV-3)?
A: Its GI50 is 1760 nM.

Q: And the IC (TGI) (SK-OV-3 (Ovarian cancer); SK-OV-3, 48 h, read-out: TGI)?
A: The IC (TGI) was 3260 nM.

Q: And the CC50 (SK-OV-3 (Ovarian cancer); SK-OV-3, read-out: LC50)?
A: Its CC50 is 6030 nM.

Q: What about the GI50 (SK-MEL-28 (Melanoma); SK-MEL-28) of the same molecule?
A: Its GI50 is 1840 nM.

Q: And the IC (TGI) (SK-MEL-28 (Melanoma); SK-MEL-28, 48 h, read-out: TGI)?
A: The IC (TGI) was 3380 nM.

Q: What about the GI50 [5] of the same molecule?
A: The GI50 was 1910 nM.

Q: And the IC (TGI) ([5]; 48 h, read-out: TGI)?
A: The IC (TGI) was 4120 nM.

Q: What about the GI50 (OVCAR-8 (Ovarian cancer)) of the same molecule?
A: Its GI50 is 1990 nM.
